These results are taken from ChEMBL document CHEMBL3507680, “University of Dundee, Gates Library screen for HepG2 cell viability”.

This data set in a line: Human HepG2 cell viability assay in 384 well format. Set-up: dose 125 nL, time 70.5 hour; cytotoxicity at 70.5 h: concentration not given beside the values. As to conditions: HepG2 cells, read-out: Inhibition. It counts as toxicity, cell-based.

With `O=C(c1ccco1)N1CCC2(CC1)CCN(c1ncccn1)CC2`, the cytotoxicity at 70.5 h turned out to be 4.21%.

In the case of `O=C1CCC2(CCCN(C(=O)NCc3ccccc3)CC2)N1` (stereo unspecified), the cytotoxicity at 70.5 h was -8.58%.

As to `O=C(NC1CC1)N1CC[C@H]2[C@H]1CCN2c1ncccn1`, the cytotoxicity at 70.5 h is -6.35%.

For the molecule `CC(=O)N1CCC2(CCCN(S(=O)(=O)c3ccc(F)cc3)C2)C1` (stereo unspecified), the cytotoxicity at 70.5 h stood at 5.56%.

For `NC(=O)N1CCC2(CC1)CC(=O)N(CC1CCCO1)c1ccccc12` (stereo unspecified), the cytotoxicity at 70.5 h worked out at 5.57%.

Turning to `CO[C@H]1CCN(C(=O)c2cc(C)on2)[C@H]1Cc1ccncc1`, the cytotoxicity at 70.5 h was -7.23%.

As to `Cc1cccc(CN2CCC3(CCN(c4ncccn4)C3)C2=O)c1` (stereo unspecified), the cytotoxicity at 70.5 h was -8.75%.

Consider `O=C(CC1CC1)N1C[C@@H]2CN(c3ccccc3)C(=O)[C@@H]2C1`, for which the cytotoxicity at 70.5 h is -8.68%.

As for `O=C(c1ccco1)N1CCC12CCN(c1ncc(F)cn1)CC2`, the cytotoxicity at 70.5 h was determined as 0.431%.

`O=C1CC2(CCN(S(=O)(=O)c3cccs3)C2)CN1c1cccc(F)c1` (stereo unspecified): the cytotoxicity at 70.5 h was -9.07%.

Turning to `COc1ccc(C[C@H]2CN(C(=O)CS(C)(=O)=O)CC[C@H]2OC)cc1`, the cytotoxicity at 70.5 h was -4.64%.

Consider `Cc1ccccc1N1CC2(CCN(S(=O)(=O)c3ccccc3)C2)CC1=O` (stereo unspecified), for which the cytotoxicity at 70.5 h was -7.42%.

On to `COc1ccc(C[C@H]2CN(C(=O)c3ccn(C)n3)CC[C@H]2OC)cc1`, for which the cytotoxicity at 70.5 h is -0.598%.

Regarding `COc1ccc(C[C@H]2CN(C(=O)c3cnoc3)CC[C@@H]2OC)cc1`, the cytotoxicity at 70.5 h is -3.97%.

Regarding `CS(=O)(=O)N1CC2(CCN(C(=O)c3csnn3)CC2)c2ccccc21`, the cytotoxicity at 70.5 h is -4.79%.

On to `Cc1ccccc1CN1CCC2(CCCN2C(=O)C(C)C)CC1`, for which the cytotoxicity at 70.5 h worked out at 32.8%.

Regarding `CN(C)CC(=O)N1CC2(CCN(Cc3ccccc3)C2)C1`, the cytotoxicity at 70.5 h was determined as 35.2%.

Take `NCC1[C@H]2CN(Cc3ccccc3F)C[C@@H]12` (stereo partly specified): the cytotoxicity at 70.5 h is -6.6%.

For the molecule `CN1C(=O)CC(c2cnn(C)c2)C12CCN(CC1CCOCC1)CC2` (stereo unspecified), the cytotoxicity at 70.5 h was -9.88%.

Regarding `CO[C@H]1CCN(C(=O)c2ccsc2)[C@@H]2CN(CC3CC3)C[C@H]12`, the cytotoxicity at 70.5 h was -7.14%.

On to `O=C(CC1CC2(CCN(CC3CC3)CC2)Oc2ccccc21)NC1CC1` (stereo unspecified), for which the cytotoxicity at 70.5 h was -5.53%.

As to `CC(C)C(=O)N1CC[C@H]2N(C)CC[C@@]2(C(=O)N2CCCC2)CC1`, the cytotoxicity at 70.5 h was -7.87%.

`COCCN1CC2(CCN(C(=O)c3ccno3)CC2)c2ccccc21`: the cytotoxicity at 70.5 h worked out at 27.9%.

`CC(=O)N1CC[C@H]2OCC[C@@]2(C(=O)NCCc2ccccn2)C1`: the cytotoxicity at 70.5 h was determined as 4.18%.

On to `COCCN1CCC2(CC1)CC(NC(=O)C1CC1)c1ccccc1O2` (stereo unspecified), for which the cytotoxicity at 70.5 h is -5.15%.

On to `CC(C)CC(=O)NC1CC2(CCN(CCF)CC2)Oc2ccccc21` (stereo unspecified), for which the cytotoxicity at 70.5 h was -6.46%.

For `Cc1cc(C(=O)N2CC[C@@H](N(C)C)[C@@H]2Cc2ccccc2)no1`, the cytotoxicity at 70.5 h was -0.0942%.

With `CN(C)CCN1C(=O)CCC12CCCN(C(=O)N(C)C)CC2` (stereo unspecified), the cytotoxicity at 70.5 h is 0.00398%.

Regarding `CC(=O)N1CCCC2(CCC(=O)N2Cc2cccnc2)C1` (stereo unspecified), the cytotoxicity at 70.5 h came to 30.1%.

On to `Cc1cccc(CN2CCc3nnc(Cn4cccc4)n3CC2)n1`, for which the cytotoxicity at 70.5 h is -5.46%.

In the case of `CC(C)N1CCC2(C=C(C(=O)NC3CC3)c3ccccc32)CC1`, the cytotoxicity at 70.5 h was -1.67%.

For `CN1CC[C@H]2OCC[C@@]2(C(=O)NCCc2ccccn2)C1`, the cytotoxicity at 70.5 h amounted to 21.6%.

`CC[C@H]1N(CC2CCC2)CCC[C@]12CCC(=O)N2Cc1ccncc1`: the cytotoxicity at 70.5 h was -5.93%.

For `O=C1CC[C@@H]2[C@@H](CCN2Cc2ccccn2)N1CC1CC1`, the cytotoxicity at 70.5 h is -3.44%.

Take `O=C1C[C@H]2[C@@H](CCN2Cc2ccccn2)N1CCN1CCOCC1`: the cytotoxicity at 70.5 h was 6.45%.

For the molecule `O=C1C[C@H]2[C@@H](CCN2Cc2ccccn2)N1Cc1cccnc1`, the cytotoxicity at 70.5 h is -6.81%.
